We go through eight compounds from patent US20070227388A1, “Tetrakisazo Compound, Coloring Matter for Recording, Ink Composition and Colored Article” (priority 2004, published 2007).

Where only a bound is given, the exact number is not on record here.

The series can be described thus: solubility test in water (ammonia alkali) by filter paper spot. The series is classed as physicochemical. Here is the method:
(Desalination process) After 83.0 parts of the compound of Formula (28) obtained in the fifth process was dissolved in 800 parts of water, 900 parts of methanol was added, and the deposited coloring matter was filtered and then dried to obtain 66.4 parts of desalted black coloring matter of Formula (28) (a compound No. 1 in Table 1: Na salt). The maximum absorption wavelength (λ max) of this coloring matter in water was 619 nm, and solubility test in water (ammonia alkali) by filter paper spot was no less than 100 g/l. [drawing 72]
For `COc1ccc(N=Nc2c(S(=O)(=O)O)cc3c(S(=O)(=O)O)c(N=Nc4cc(S(=O)(=O)O)c5cc(S(=O)(=O)O)c(N=Nc6ccc7c(O)c(N=Nc8ccccc8S(=O)(=O)O)c(S(=O)(=O)O)cc7c6)c(O)c5c4N)ccc3c2O)c(S(=O)(=O)O)c1` [No. 1], the solubility is not below 100 mg/mL.
On to `COc1ccc(N=Nc2c(S(=O)(=O)O)cc3cc(S(=O)(=O)O)c(N=Nc4cc(S(=O)(=O)O)c5cc(S(=O)(=O)O)c(N=Nc6ccc7c(O)c(N=Nc8ccccc8S(=O)(=O)O)c(S(=O)(=O)O)cc7c6)c(O)c5c4N)cc3c2O)c(S(=O)(=O)O)c1` [No. 2], for which the solubility is not below 100 mg/mL.
The compound `Nc1c(N=Nc2ccc3cc(S(=O)(=O)O)c(N=Nc4ccc([N+](=O)[O-])cc4S(=O)(=O)O)c(O)c3c2)cc(S(=O)(=O)O)c2cc(S(=O)(=O)O)c(N=Nc3ccc4c(O)c(N=Nc5ccc([N+](=O)[O-])cc5S(=O)(=O)O)c(S(=O)(=O)O)cc4c3S(=O)(=O)O)c(O)c12` [No. 6] showed a solubility not below 100 mg/mL.
The value for `Nc1c(N=Nc2cc3c(O)c(N=Nc4ccc([N+](=O)[O-])cc4S(=O)(=O)O)c(S(=O)(=O)O)cc3cc2S(=O)(=O)O)cc(S(=O)(=O)O)c2cc(S(=O)(=O)O)c(N=Nc3ccc4c(O)c(N=Nc5ccc([N+](=O)[O-])cc5S(=O)(=O)O)c(S(=O)(=O)O)cc4c3S(=O)(=O)O)c(O)c12` [No. 13] was not below 100 mg/mL; that for `Nc1c(N=Nc2ccc3c(O)c(N=Nc4ccc([N+](=O)[O-])cc4S(=O)(=O)O)c(S(=O)(=O)O)cc3c2S(=O)(=O)O)cc(S(=O)(=O)O)c2cc(S(=O)(=O)O)c(N=Nc3ccc4c(O)c(N=Nc5ccc([N+](=O)[O-])cc5S(=O)(=O)O)c(S(=O)(=O)O)cc4c3S(=O)(=O)O)c(O)c12` [No. 16] was not below 100 mg/mL; that for `Nc1c(N=Nc2ccc3c(O)c(N=Nc4cc(C(=O)O)cc(C(=O)O)c4)c(S(=O)(=O)O)cc3c2S(=O)(=O)O)cc(S(=O)(=O)O)c2cc(S(=O)(=O)O)c(N=Nc3ccc4c(O)c(N=Nc5cc(C(=O)O)cc(C(=O)O)c5)c(S(=O)(=O)O)cc4c3S(=O)(=O)O)c(O)c12` [No. 17] was not below 100 mg/mL.
The value for `COc1ccc(N=Nc2c(S(=O)(=O)O)cc3c(S(=O)(=O)O)c(N=Nc4cc(S(=O)(=O)O)c5cc(S(=O)(=O)O)c(N=Nc6ccc7c(O)c(N=Nc8ccc(OC)cc8S(=O)(=O)O)c(S(=O)(=O)O)cc7c6S(=O)(=O)O)c(O)c5c4N)ccc3c2O)c(S(=O)(=O)O)c1` [No. 19] was not below 100 mg/mL.
The value for `COc1ccc(N=Nc2c(S(=O)(=O)O)cc3cc(N=Nc4c(S(=O)(=O)O)cc5c(S(=O)(=O)O)cc(N=Nc6ccc7cc(S(=O)(=O)O)c(N=Nc8ccc(OC)cc8S(=O)(=O)O)c(O)c7c6)c(N)c5c4O)ccc3c2O)c(S(=O)(=O)O)c1` [No. 21] was not below 100 mg/mL.

As a reminder, the solubility is how much of the substance goes into solution per volume.
